Earlier results on 1 molecule are cited in publication PMC10703426, “New characterization of dihydroergotamine receptor pharmacology in the context of migraine: utilization of a β-arrestin recruitment assay” (Frontiers in Neurology, 2023).

This data set relates to 5-HT1D. Set-up: method as in doi:10.1186/1129-2377-14-S1-P75. The note with it: cited from earlier work.

With `CNS(=O)(=O)Cc1ccc2[nH]cc(CCN(C)C)c2c1` [sumatriptan succinate], the dissociation half-life is 5.4 min.
